Laboratory results reported in ChEMBL document CHEMBL3046797, “Structure-activity relationships of trichothecene toxins in an Arabidopsis thaliana leaf assay” (J Agric Food Chem, 2007).

Key:
Type in all cases: organism-based
Arabidopsis thaliana [1] = assay: Phytotoxicity against Arabidopsis thaliana Col-4 leaves assessed as induction of chlorosis, shriveling or death of leaves […] by detached leaf assay; settings: in vivo
[2] = Phytotoxicity against Arabidopsis thaliana Col-4 leaves assessed as induction of leaf death after 7 weeks post compound application by detached leaf assay; settings: Col-4, arabidopsis thaliana, read-out: LD50
Arabidopsis thaliana [3] = assay: Phytotoxicity against Arabidopsis thaliana Col-4 leaves assessed as induction of chlorosis at 100 uM […] by detached leaf assay; settings: in vivo, 1176 h
Arabidopsis thaliana [4] = assay: Phytotoxicity against Arabidopsis thaliana Col-4 leaves assessed as induction of leaf death at 10 uM […] by detached leaf assay; settings: in vivo
Arabidopsis thaliana [5] = assay: Phytotoxicity against Arabidopsis thaliana Col-4 leaves assessed as induction of leaf death at 100 uM […] by detached leaf assay; settings: in vivo
Arabidopsis thaliana [6] = assay: Phytotoxicity against Arabidopsis thaliana Col-4 leaves assessed as induction of chlorosis at 50 uM […] by detached leaf assay; settings: in vivo, 1176 h
Arabidopsis thaliana [7] = assay: Phytotoxicity against Arabidopsis thaliana Col-4 leaves assessed as induction of chlorosis at 10 uM […] by detached leaf assay; settings: in vivo
Arabidopsis thaliana [8] = assay: Phytotoxicity against Arabidopsis thaliana Col-4 leaves assessed as induction of leaf death at 50 uM […] by detached leaf assay; settings: in vivo

Compound	ED50 (Arabidopsis thaliana [1]) [µM]	LC50 at 1176 h [2] [µM]	further results
CC(=O)OC[C@]12CCC(C)=C[C@H]1O[C@@H]1[C@H](OC(C)=O)C[C@@H](OC(C)=O)[C@@]2(C)[C@@]12CO2 [3,4,15-TRIACETOXYSCIRPENOL]	6.7		
CC(=O)OC[C@]12[C@H](O)C(=O)C(C)=C[C@H]1O[C@@H]1[C@H](OC(C)=O)CC[C@@]2(C)[C@@]12CO2 [3,15-DIACETYLDEOXYNIVALENOL]	10	28.2	
CC(=O)OC[C@]12[C@H](O)C(=O)C(C)=C[C@H]1O[C@@H]1[C@H](OC(C)=O)C[C@@H](O)[C@@]2(C)[C@@]12CO2 [3,15-DIACETYLNIVALENOL]	2.2	4.3	
CC1=C[C@H]2O[C@@H]3[C@H](O)CC[C@](C)([C@@]2(CO)CC1)[C@@]31CO1 [3,15-DIDEACETYLCALONECTRIN]	90.1		
CC(=O)O[C@@H]1C[C@]2(C)[C@@]3(CO)[C@H](O)C(=O)C(C)=C[C@H]3O[C@H]1[C@@]21CO1 [3-ACETYLDEOXYNIVALENOL]	3.4	18.7	
CC(=O)OC[C@]12CCC(C)=C[C@H]1O[C@@H]1[C@H](O)CC[C@@]2(C)[C@@]12CO2 [3-DEACETYLCALONECTRIN]	7.6		
CC(=O)O[C@@H]1C[C@@H](O)[C@H]2O[C@@H]3C=C(C)C(=O)[C@@H](O)[C@]3(CO)[C@]1(C)[C@@]21CO1 [4-ACETYLNIVALENOL]	16.1		
CC(=O)OC[C@]12[C@H](O)C(=O)C(C)=C[C@H]1O[C@@H]1[C@H](O)C[C@@]2(C)[C@]12CO2 [15-ACETYLDEOXYNIVALENOL]	1.3	4	
CC(=O)O[C@@H]1CC[C@]2(C)[C@@]3(CO)CCC(C)=C[C@H]3O[C@H]1[C@]21CO1 [15-DEACETYLCALONECTRIN]	> 100		Activity (Arabidopsis thaliana [3]): 50%
CC1=C[C@H]2O[C@@H]3[C@H](O)C[C@](C)([C@@]2(CO)[C@H](O)C1=O)[C@]31CO1 [DEOXYNIVALENOL]	3.8	23	
CC(=O)O[C@@H]1CC[C@]2(C)[C@@]3(C)CCC(C)=C[C@H]3O[C@H]1[C@]21CO1 [ISOTRICHODERMIN]	8.6	16.1	
CC1=C[C@H]2O[C@@H]3[C@H](O)CC[C@](C)([C@@]2(C)CC1)[C@@]31CO1 [ISOTRICHODERMOL]	3.5		
CC1=CC(O)[C@@](C)([C@@]2(C)C[C@@H](O)[C@@H](O)C23CO3)CC1 (stereo partly drawn) [ISOTRICHOTRIOL]	> 100		Activity (Arabidopsis thaliana [4]): 10%; Activity (Arabidopsis thaliana [5]): 10%; Activity (Arabidopsis thaliana [3]): 10%; Activity (Arabidopsis thaliana [6]): 10%; Activity (Arabidopsis thaliana [7]): 10%; Activity (Arabidopsis thaliana [8]): 10%
CC1=C[C@H]2O[C@@H]3[C@H](O)[C@@H](O)[C@](C)([C@@]2(CO)[C@H](O)C1=O)[C@]31CO1 [NIVALENOL]	> 100	> 100	Activity (Arabidopsis thaliana [3]): 10%
CC1=C[C@H]2O[C@@H]3[C@H](O)C[C@@H](O)[C@](C)([C@@]2(CO)CC1)[C@@]31CO1 [SCIRPENTRIOL]	53.6		
C=C1CCC[C@]1(C)[C@]1(C)CC=C(C)CC1 [TRICHODIENE]	> 100		Activity (Arabidopsis thaliana [5]): 3%; Activity (Arabidopsis thaliana [3]): 10%
